Data reported in patent US20220370451A1, “INHIBITORS OF HUMAN IMMUNODEFICIENCY VIRUS REPLICATION” (VIIV HEALTHCARE UK ( No. 5) LIMITED, priority 2019, published 2022).

Tests used:
[1] = tested on: recombinant NL4-3 virus; experiment: HIV cell culture assay (luciferase reporter antiviral activity); type: cell-based; conditions: Human immunodeficiency virus 1, NL43, MT2
Experimental: HIV cell culture assay—MT=2 cells, 293T cells and the proviral DNA clone of NL4-3 virus were obtained from the NIH AIDS Research and Reference Reagent Program. MT=2 cells were propagated in RPMI 1640 media supplemented with 10% heat inactivated fetal bovine serum (FBS), […] penicillin G and up to 100 units/mL streptomycin. The 293T cells were propagated in DMEM media supplemented with 10% heat inactivated FBS, […] penicillin G and […] streptomycin. A recombinant NL4-3 proviral clone, in which a section of the nef gene was replaced with the Renilla luciferase gene, was used to make the reference virus used in these studies. The recombinant virus was prepared through transfection of the recombinant NL4-3 proviral clone into 293T cells using Transit-293 Transfection Reagent from Mirus Bio LLC (Madison, Wis.). Supernatent was harvested after 2-3 days and the amount of virus present was titered in MT=2 cells using luciferase enzyme activity as a marker by measuring luciferase enzyme activity. Luciferase was quantitated using the EnduRen Live Cell Substrate from Promega (Madison, Wis.). Antiviral activities of compounds toward the recombinant virus were quantified by measuring luciferase activity in MT=2 cells infected for 4-5 days with the recombinant virus in the presence of serial dilutions of the compound.
The 50% effective concentration (EC50) was calculated by using the exponential form of the median effect equation where (Fa)=1/[1+(ED50/drug conc.)m] (Johnson V A, Byington RT. Infectivity Assay. In Techniques in HIV Research. ed. Aldovini A, Walker B D. 71-76. New York: Stockton Press.1990). The 50% inhibitory concentration (EC50) was calculated by using the exponential form of the median effect equation where percent inhibition=1/[1+(EC50/drug concentration)m], where m is a parameter that reflects the slope of the concentration-response curve.

[2] = Compound cytotoxicity, XTT-based colorimetric assay; type: cell-based; conditions: human; uninfected MT2 cells, day 4, XTT
Experimental: Compound cytotoxicity and the corresponding CC50 values were determined using the same protocol as described in the antiviral assay except that uninfected cells were used. Cytotoxicity was assessed on day 4 in uninfected MT2 cells by using a XTT (2,3-bis[2-Methoxy-4-nitro-5-sulfophenyl]-2H-tetrazolium-5-carboxyanilide inner salt)-based colorimetric assay (Sigma-Aldrich, St Louis, Mo.).

Row | Compound | EC50 [1] [nM] | CC50 at 4 days [2] [nM]
1 | Cc1nccnc1-c1ccc2c(=O)n(-c3ccc(Cl)c4c(NS(C)(=O)=O)nn(C)c34)c([C@H](Cc3cc(F)cc(F)c3)NC(=O)Cn3nc(C4CC4)c4ccccc43)nc2c1 (atropisomer, axis not shown; (P)) [Example 2, (S)-N-(1-((3P)-3-(4-chloro-1-methyl-3-(methylsulfonamido)-1H-indazol-7-yl)-7-(3-methylpyrazin-2-yl)-4-oxo-3,4-dihydroquinazolin-2-yl)-2-(3,5-difluorophenyl)ethyl)-2-(3-cyclopropyl-1H-indazol-1-yl)acetamide] | 0.21 | > 500
2 | Cn1nc(NS(C)(=O)=O)c2c(Cl)ccc(-n3c([C@H](Cc4cc(F)cc(F)c4)NC(=O)Cn4nc(C5CC5)cc4C(F)F)nc4cc(-c5ccccc5F)ccc4c3=O)c21 (atropisomer, axis not shown; (P)) [Example 29, (S)-N-(1-((3P)-3-(4-chloro-1-methyl-3-(methylsulfonamido)-1H-indazol-7-yl)-7-(2-fluorophenyl)-4-oxo-3,4-dihydroquinazolin-2-yl)-2-(3,5-difluorophenyl)ethyl)-2-(3-cyclopropyl-5-(difluoromethyl)-1H-pyrazol-1-yl)acetamide] | 3.1 | > 500
3 | O=C(Cn1nc(C(F)F)cc1C1CC1)N[C@@H](Cc1cc(F)cc(F)c1)c1nc2cc(-c3ncccn3)ccc2c(=O)n1-c1ccc(Cl)c2c(NS(=O)(=O)C3CC3)nn(CC(F)F)c12 (atropisomer, axis not shown; (P)) [Example 34, (S)-N-(1-((3P)-3-(4-chloro-3-(cyclopropanesulfonamido)-1-(2,2-difluoroethyl)-1H-indazol-7-yl)-4-oxo-7-(pyrimidin-2-yl)-3,4-dihydroquinazolin-2-yl)-2-(3,5-difluorophenyl)ethyl)-2-(5-cyclopropyl-3-(difluoromethyl)-1H-pyrazol-1-yl)acetamide] | 0.4 | > 500
4 | Cc1cc(F)ccc1-c1ccc2c(=O)n(-c3ccc(C)c4c(NS(C)(=O)=O)nn(C)c34)c([C@H](Cc3cc(F)cc(F)c3)NC(=O)Cn3nc(C(F)F)c4c3C(F)(F)[C@@H]3C[C@H]43)nc2c1 (atropisomer, axis not shown; (aR)) [Example 31, 2-((3bS,4aR)-3-(difluoromethyl)-5,5-difluoro-3b,4,4a,5-tetrahydro-1H-cyclopropa[3,4]cyclopenta[1,2-c]pyrazol-1-yl)-N-((S)-2-(3,5-difluorophenyl)-1-(3-(1,4-dimethyl-3-(methylsulfonamido)-1H-indazol-7-yl)-(3P)-7-(4-fluoro-2-methylphenyl)-4-oxo-3,4-dihydroquinazolin-2-yl)ethyl)acetamide] | 2.3 | > 500
5 | Cc1nccnc1-c1ccc2c(=O)n(-c3ccc(C)c4c(NS(C)(=O)=O)nn(CC(F)F)c34)c([C@H](Cc3cc(F)cc(F)c3)NC(=O)Cn3nc(C(F)F)c4c3C(F)(F)[C@@H]3C[C@H]43)nc2c1 (atropisomer, axis not shown; (P)) [Example 32, N-((S)-1-(3-(1-(2,2-difluoroethyl)-4-methyl-3-(methylsulfonamido)-1H-indazol-7-yl)-(3P)-7-(3-methylpyrazin-2-yl)-4-oxo-3,4-dihydroquinazolin-2-yl)-2-(3,5-difluorophenyl)ethyl)-2-((3bS,4aR)-3-(difluoromethyl)-5,5-difluoro-3b,4,4a,5-tetrahydro-1H-cyclopropa[3,4]cyclopenta[1,2-c]pyrazol-1-yl)acetamide] | 0.063 | > 500
6 | CC(C)[C@@H](C(=O)N[C@@H](Cc1cc(F)cc(F)c1)c1nc2nc(-c3ccccc3F)ccc2c(=O)n1-c1ccc(Cl)c2c(NS(C)(=O)=O)nn(CC(F)(F)F)c12)n1ccc(C2CC2)n1 (atropisomer, axis not shown; (P)) [Example 23, N-((S)-1-((3P)-3-(4-chloro-3-(methylsulfonamido)-1-(2,2,2-trifluoroethyl)-1H-indazol-7-yl)-7-(2-fluorophenyl)-4-oxo-3,4-dihydropyrido[2,3-d]pyrimidin-2-yl)-2-(3,5-difluorophenyl)ethyl)-2-(3-cyclopropyl-1H-pyrazol-1-yl)-3-methylbutanamide] | 0.21 | > 500
7 | Cc1nccnc1-c1ccc2c(=O)n(-c3ccc(Cl)c4c(NS(C)(=O)=O)nn(C)c34)c([C@H](Cc3cc(F)cc(F)c3)NC(=O)Cn3nc(C(F)F)c4ccccc43)nc2c1 (atropisomer, axis not shown; (P)) [Example 7, (S)-N-(1-((3P)-3-(4-chloro-1-methyl-3-(methylsulfonamido)-1H-indazol-7-yl)-7-(3-methylpyrazin-2-yl)-4-oxo-3,4-dihydroquinazolin-2-yl)-2-(3,5-difluorophenyl)ethyl)-2-(3-(difluoromethyl)-1H-indazol-1-yl)acetamide] | 0.38 | > 500
8 | O=C(Cn1nc(C(F)F)cc1C1CC1)N[C@@H](Cc1cc(F)cc(F)c1)c1nc2cc(-c3ccccn3)ccc2c(=O)n1-c1ccc(Cl)c2c(NS(=O)(=O)C3CC3)nn(CC(F)F)c12 (atropisomer, axis not shown; (P)) [Example 33, (S)-N-(1-((3P)-3-(4-chloro-3-(cyclopropanesulfonamido)-1-(2,2-difluoroethyl)-1H-indazol-7-yl)-4-oxo-7-(pyridin-2-yl)-3,4-dihydroquinazolin-2-yl)-2-(3,5-difluorophenyl)ethyl)-2-(5-cyclopropyl-3-(difluoromethyl)-1H-pyrazol-1-yl)acetamide] | 0.79 | > 500
9 | CS(=O)(=O)Nc1nn(CC(F)F)c2c(-n3c([C@H](Cc4cc(F)cc(F)c4)NC(=O)Cn4nc(C(F)F)cc4C4CC4)nc4nc(-c5ccccc5F)ccc4c3=O)ccc(Cl)c12 (atropisomer, axis not shown; (P)) [Example 16] | 0.37 | > 500
10 | CS(=O)(=O)Nc1nn(CC(F)F)c2c(-n3c([C@H](Cc4cc(F)cc(F)c4)NC(=O)Cn4nc(C5CC5)c5ccccc54)nc4nc(-c5ccccc5F)ccc4c3=O)ccc(Cl)c12 (atropisomer, axis not shown; (P)) [Example 18, (S)-N-(1-((3P)-3-(4-chloro-1-(2,2-difluoroethyl)-3-(methylsulfonamido)-1H-indazol-7-yl)-7-(2-fluorophenyl)-4-oxo-3,4-dihydropyrido[2,3-d]pyrimidin-2-yl)-2-(3,5-difluorophenyl)ethyl)-2-(3-cyclopropyl-1H-indazol-1-yl)acetamide] | 0.17 | > 500
11 | CC(C)[C@H](C(=O)N[C@@H](Cc1cc(F)cc(F)c1)c1nc2nc(-c3ccccc3F)ccc2c(=O)n1-c1ccc(Cl)c2c(NS(C)(=O)=O)nn(CC(F)(F)F)c12)n1ccc(C2CC2)n1 (atropisomer, axis not shown; (P)) [Example 26, N-((S)-1-((3P)-3-(4-chloro-3-(methylsulfonamido)-1-(2,2,2-trifluoroethyl)-1H-indazol-7-yl)-7-(2-fluorophenyl)-4-oxo-3,4-dihydropyrido[2,3-d]pyrimidin-2-yl)-2-(3,5-difluorophenyl)ethyl)-2-(3-cyclopropyl-1H-pyrazol-1-yl)-3-methylbutanamide] | 1.9 | > 500
12 | O=C(Cn1nc(C2CC2)c2ccccc21)N[C@@H](Cc1cc(F)cc(F)c1)c1nc2nc(-c3ccccc3F)ccc2c(=O)n1-c1ccc(Cl)c2c(NS(=O)(=O)C3CC3)nn(CC(F)F)c12 (atropisomer, axis not shown; (P)) [Example 13, (S)-N-(1-((3P)-3-(4-chloro-3-(cyclopropanesulfonamido)-1-(2,2-difluoroethyl)-1H-indazol-7-yl)-7-(2-fluorophenyl)-4-oxo-3,4-dihydropyrido[2,3-d]pyrimidin-2-yl)-2-(3,5-difluorophenyl)ethyl)-2-(3-cyclopropyl-1H-indazol-1-yl)acetamide] | 0.47 | > 500
13 | CC(C)(C(=O)N[C@@H](Cc1cc(F)cc(F)c1)c1nc2nc(-c3ccccc3F)ccc2c(=O)n1-c1ccc(Cl)c2c(NS(=O)(=O)C3CC3)nn(CC(F)F)c12)n1ccc(C2CC2)n1 (atropisomer, axis not shown; (P)) [Example 21, (S)-N-(1-((3P)-3-(4-chloro-3-(cyclopropanesulfonamido)-1-(2,2-difluoroethyl)-1H-indazol-7-yl)-7-(2-fluorophenyl)-4-oxo-3,4-dihydropyrido[2,3-d]pyrimidin-2-yl)-2-(3,5-difluorophenyl)ethyl)-2-(3-cyclopropyl-1H-pyrazol-1-yl)-2-methylpropanamide] | 2.3 | > 500
